Patent US20210275621A1, “COMPOSITION FOR PREVENTING, ALLEVIATING, IMPROVING, OR TREATING THE FEMALE HORMONE CONTROLLING DISORDER SYNDROME OR SYMPTOMS COMPRISING GREEN TEA EXTRACT WHICH HAS MODIFIED AMOUNTS OF INGREDIENTS” (AMOREPACIFIC CORPORATION, priority 2020, published 2021)

How the values were obtained:
Assay type in all cases: cell-based
[1] = tested on: MCF-7 cells (breast cancer cells); assay: MCF-7 breast cancer cell growth (cell counting); settings: 100 pM, 48 hours; FIG. 7
estrogen receptor ERα = target: T1, estrogen receptor ERα (Homo sapiens, UniProt P03372); assay: Human ERα/β reporter assay panel (ERE-luc), ERα; settings: 1 μg/mL, 24 hours; FIG. 6
T1 construct: host or cells: reporter cells included in the purchased panel
T1 sequence (P03372 1-595): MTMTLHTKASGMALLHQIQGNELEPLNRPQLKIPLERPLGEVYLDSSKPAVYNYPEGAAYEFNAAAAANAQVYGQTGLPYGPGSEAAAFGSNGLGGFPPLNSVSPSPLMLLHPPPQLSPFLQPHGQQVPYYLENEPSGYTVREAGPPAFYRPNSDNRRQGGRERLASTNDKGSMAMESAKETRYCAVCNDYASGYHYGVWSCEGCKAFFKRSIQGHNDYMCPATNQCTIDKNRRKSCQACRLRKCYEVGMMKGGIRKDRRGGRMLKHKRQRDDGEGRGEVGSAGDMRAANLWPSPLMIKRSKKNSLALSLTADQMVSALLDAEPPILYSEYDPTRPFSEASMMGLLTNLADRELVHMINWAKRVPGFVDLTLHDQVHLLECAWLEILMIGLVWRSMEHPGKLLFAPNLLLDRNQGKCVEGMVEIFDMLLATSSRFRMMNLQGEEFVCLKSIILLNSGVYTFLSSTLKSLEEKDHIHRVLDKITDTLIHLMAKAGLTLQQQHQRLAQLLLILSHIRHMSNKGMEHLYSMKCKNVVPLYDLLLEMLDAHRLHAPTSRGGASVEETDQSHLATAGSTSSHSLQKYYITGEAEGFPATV
Protocol: (§1) For evaluation of the effect of activating estrogen receptors alpha and beta (ERα/β) of the notified green tea extract, the high-temperature-processed green tea extract and theanine depending on the weight ratio of GCG:EGCG, a human ERα/β reporter assay panel (IB00421-48P, Indigo Bioscience) was treated with 20 μg/mL sample 1 (notified green tea extract), 20 μg/mL sample 2 (high-temperature-processed green tea extract), 20 μg/mL sample 3, or 20 μg/mL sample 4 of Preparation Example 1 or 2, or 1 μg/mL theanine of Preparation Example 3, for 24 hours and then the increased activity of the estrogen receptors ERα and ERβ was analyzed.
(§2) Specifically, ERα and ERβ are overexpressed and the ERE-luc reporter gene is included in the cells included in the human ERα/β reporter assay panel. If the activity of the estrogen receptors is increased upon treatment with the test substance, ERα and ERβ are bound to ERE and the expression of luciferase is induced. Therefore, the activity of ERα and ERβ can be determined by measuring light emission from the cells.

estrogen receptor ERβ = target: T2, estrogen receptor ERβ (Homo sapiens, UniProt Q92731); assay: Human ERα/β reporter assay panel (ERE-luc), ERβ; settings: 1 μg/mL, 24 hours; FIG. 6
T2 construct: host or cells: reporter cells included in the purchased panel
T2 sequence (Q92731 whole entry): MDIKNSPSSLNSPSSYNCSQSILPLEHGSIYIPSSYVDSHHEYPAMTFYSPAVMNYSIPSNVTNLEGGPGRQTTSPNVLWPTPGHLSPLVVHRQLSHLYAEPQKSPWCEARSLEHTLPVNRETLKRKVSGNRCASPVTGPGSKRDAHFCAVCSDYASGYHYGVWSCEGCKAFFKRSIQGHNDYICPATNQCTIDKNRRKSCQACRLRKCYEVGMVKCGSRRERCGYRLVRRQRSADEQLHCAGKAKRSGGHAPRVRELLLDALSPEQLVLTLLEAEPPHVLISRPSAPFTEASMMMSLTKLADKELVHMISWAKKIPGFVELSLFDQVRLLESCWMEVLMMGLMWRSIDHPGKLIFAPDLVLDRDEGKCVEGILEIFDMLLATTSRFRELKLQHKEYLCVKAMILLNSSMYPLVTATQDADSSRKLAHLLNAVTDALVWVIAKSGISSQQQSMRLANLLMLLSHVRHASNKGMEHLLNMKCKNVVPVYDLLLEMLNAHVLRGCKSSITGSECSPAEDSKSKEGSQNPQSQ
Protocol: as §1, §2

activity of estrogen receptor ERα (luciferase activity) (estrogen receptor ERα) | activity of estrogen receptor ERβ (luciferase activity) (estrogen receptor ERβ) | Structure (SMILES) | growth of MCF-7 cells (number of cells) [1]
– | – | C[C@]12CC[C@@H]3c4ccc(O)cc4CC[C@H]3[C@@H]1CC[C@@H]2O [17b-estradiol] | promoted significantly
no receptor-activating effect | no receptor-activating effect | CCNC(=O)CC[C@H](N)C(=O)O [theanine, L-theanine] | –
